Assay results as given in patent US5874592A, “Physiologically active substance EI-2128-1” (Kyowa Hakko Kogyo Co., Ltd., priority 1996, dated 1999).
Converted amounts (≈) assume the structure as drawn.

Tests used:
[1] = Solubility; assay type: physicochemical; details: methanol, acetonitrile, and chloroform
[2] = system: Staphylococcus aureus subsp. aureus ATCC 6538P; test: Antibacterial activity, agar dilution method; assay type: cell-based; details: ATCC6538P, pH 7.0
[3] = system: Candida albicans ATCC 10231; test: Antibacterial activity, agar dilution method; assay type: cell-based; details: ATCC10231; Candida albicans ATCC 10231, agar dilution, pH 7.0
[4] = system: Bacillus subtilis No. 10707; test: Antibacterial activity, agar dilution method; assay type: cell-based; details: Bacillus subtilis No. 10707, agar dilution, pH 7.0
[5] = system: Enterococcus hirae ATCC 10541; test: Antibacterial activity, agar dilution method; assay type: cell-based; details: ATCC10541; Enterococcus hirae ATCC 10541, agar dilution, pH 7.0
[6] = system: production of IL-1β by human monocyte-derived THP-1 cells; test: Inhibitory activity against the production of IL-1β by LPS-stimulated THP-1 cells (ELISA); assay type: cell-based; details: LPS 25 μg/ml, 4 hours, PMA-differentiated THP-1 cells, read-out: 50% inhibitory concentration against the IL-1 production by THP-1 cells stimulated by LPS
Experimental: The inhibitory activity of the compound of the present invention, EI-2128-1, against the production of IL-1β by human monocyte-derived THP-1 cells (ATCC No. TIB 202) was examined in the following manner. The amount of IL-1β was determined by the ELISA method.
THP-1 cells were suspended in RPMI1640 medium (Nissui Pharmaceutical Co., Ltd.) containing 10% inactivated fetal calf serum at a concentration of 1×10^5 cells/ml. The cell suspension was put into wells of a 24-well plate in an amount of 1 ml/well. Phorbol 12-myristate 13-acetate (PMA, final concentration: 30 nM) was added to the wells, followed by incubation in a 5% CO2 -incubator at 37° C. for 65 hours to differentiate the cells into macrophage.
Then, the plate was gently washed with serum-free RPMI1640 medium to remove the cells which were not adhered to the wells, and the residue was cultured for 4 hours in serum-free RPMI1640 medium (1 ml/well) containing lipopolysaccharide (LPS, final concentration: 25 μg/ml) and the test compound (final concentration: 0.05-50 μg/ml).
After the completion of culturing, the amount of IL-1β released into the culture supernatant was determined by using an IL-1β determination kit (Amersham Corp.).
The IL-1 production inhibition rate was calculated according to the following equation to obtain IC50 (50% inhibitory concentration).
IL-1 production inhibition rate (%)=(A-B)/(A-C)×100 […]

[7] = system: Klebsiella pneumoniae subsp. pneumoniae ATCC 10031; test: Antibacterial activity, agar dilution method; assay type: cell-based; details: ATCC10031; Klebsiella pneumoniae subsp. pneumoniae ATCC 10031, agar dilution, pH 7.0
[8] = system: Proteus vulgaris ATCC 6897; test: Antibacterial activity, agar dilution method; assay type: cell-based; details: ATCC6897; Proteus vulgaris ATCC 6897, agar dilution, pH 7.0

## CCCCCCC(C)CC(C)/C=C/C(=O)NC1CC2(OC1O)C1OC1C(=O)C1OC12 (centres unmarked) [EI-2128-1]
[1]
  Solubility: Readily soluble in methanol, acetonitrile, and chloroform
[2]
  MIC: 0.33 µg/mL (≈ 0.783 µM)
[3]
  MIC: 42 µg/mL (≈ 99.6 µM)
[4]
  MIC: 0.16 µg/mL (≈ 0.38 µM)
[5]
  MIC: 0.33 µg/mL (≈ 0.783 µM)
[6]
  IC50: 0.1 µM
[7]
  MIC: 21 µg/mL (≈ 49.8 µM)
[8]
  MIC: 42 µg/mL (≈ 99.6 µM)
